Assay results from patent US5747239A, “Synthetic peptides specific for the detection of antibodies to HCV, diagnosis of HCV infection and preventions thereof as vaccines” (United Biomedical, Inc., priority 1994, dated 1998).

Experiments:
Type in all cases: binding, human
antibodies to HCV [1] = assay: NS-1 peptide ELISA, Panel II (asymptomatic individuals, mainland China and Taiwan); settings: NS-1 peptides; Panel II (CH1-CH7); relative to pep1 (231C)
Protocol: Wells of 96-well plates were coated for 1 hour at 37° C. with each of the 16 peptides (designated as peptides 241A-C, 231A-E, 232A-D, 233C, 234A-C), synthesized according to sequences derived from the NS-1 region (Table 3A), at 5 ug/mL at 100 uL per well in 10 mM NaHCO3 buffer, pH 9.5. Each peptide's immunoreactivity was measured as previously described (see Example 1), using an 8 member serum panel (Panel I).
A panel of serum samples from individuals coming from regions in which hepatitis C is endemic, namely mainland China and Taiwan, were tested for evidence of reactivity to these NS-1 protein derived peptides. Twenty-four samples were chosen from individuals who had no recognizable symptoms of non-A, non-B hepatitis and for whom the peptide based HCV EIA, Format C, as described in Example 11, was nonreactive. Seven of the 24 samples (29%) were reactive against one or more peptides from the NS-1 region, indicative of the presence of long term protective antibodies responsive to this region. This 7 member panel (designated as Panel II, CH1-CH7) was used to further characterize these NS-1 peptides for their immunoreactivity.
The peptide with the greatest reactivity against the serum Panel II again was pep1 (designated 231c in Table 3A). Using this peptide as a standard, the relative immunoreactivity for each of the other 15 peptides from the NS-1 region are calculated in Table 3A.

antibodies to HCV [2] = assay: NS-1 peptide ELISA, early and late HCV infection panels
Protocol: In addition, all sixteen NS-1 peptides were tested on panels of samples representing HCV-antibody positive donors (n=9) in an early stage of infection, namely plasmapheresis donors with the first occurrence of an ALT level >100 i.u./L, and those asymptomatic individuals (n=14) disqualified from blood donation because of a reactive result for anti-HIV or HBc, for whom the anti-HCV result probably represents a past infection.
These select panels were chosen from hundreds of HCV positive sera for their ability to recognize NS-1 antigens. For both groups, peptide designated as 232A (pep2) had the greatest immunoreactivity. Using pep2 as a standard, the relative immunoreactivity of each peptide was calculated (Table 3C).

antibodies to HCV [3] = assay: Envelope/NS-1 peptide ELISA, anti-HCV positive plasmapheresis donors with elevated ALT (Panel III); settings: envelope/NS-1 peptides; Panel III (17 samples); peptide 254B as a standard
Protocol: To select a panel of samples with reactivity to peptides from the envelope/NS-1 region, 97 such samples from anti-HCV positive plasmapheresis donors with elevated ALT levels were tested with peptide 254B. […] 17 samples with the greatest reactivity with peptide 254B were chosen to form a third panel (Panel III) to screen for the immunoreactivity of the other 20 peptides from the envelope/NS-1 region. The individual absorbance values of each of the 17 samples on the four peptides with the greatest reactivity, i.e. 255C (pep7), 254B (pep8), 247B (pep9), and 246D (pep10), are listed in Table 8b.

antibodies to HCV [4] = assay: Peptide ELISA for relative immunoreactivity, 8 member HCV serum panel (Panel I)
Protocol: As an example to illustrate how relative (%) immunoreactivity for HCV synthetic peptides is measured, wells of 96-well plates are coated for 1 hour at 37° C., with each of the following peptides: IIH, V, VIIIE and pep11 at 5 ug/mL at 100 uL per well in 10 mM NaHCO3 buffer, pH 9.5. The peptide coated wells were then incubated with 250 uL of 3% by weight of gelatin in PBS in 37° C. for 1 hour to block non-specificprotein binding sites, followed by three washes with PBS containing 0.05% by volume of TWEEN 20 and then dried. The test specimens containing a panel of eight well-characterized HCV antibody positive patient sera were diluted with PBS containing 20% by volume normal goat serum, 1% by weight gelatin and 0.05% by volume TWEEN 20 at dilutions of 1:20 volume to volume, respectively. 200 uL of the diluted specimens were added to each of the wells and allowed to react for 15 minutes at 37° C.
The wells were then washed six times with 0.05% by volume TWEEN 20 in PBS in order to remove unbound antibodies. Horseradish peroxidase conjugated goat anti-human IgG was used as a second antibody tracer to bind with the HCV antibody-peptide antigen complex formed in positive wells. 100 uL of peroxidase labeled goat anti-human IgG at a dilution of 1:1800 in 1% by volume normal goat serum, 0.05% by volume TWEEN 20 in PBS was added to each well and incubated at 37° C. for another 15 minutes.
The wells were washed six times with 0.05% by volume TWEEN 20 PBS to remove unbound antibody and reacted with 100 uL of the substrate mixture containing 0.04% by weight orthophenylenediamine (OPD) and 0.12% by volume hydrogen peroxide in sodium citrate buffer, pH 5.0.
This substrate mixture was used to detect the peroxidase label by forming a colored product. Reactions were stopped by the addition of 100 uL of 1.0M H2 SO4 and the A492 mm measured. Results of relative immunoreactivity for each of the peptides obtained from this study are shown in Table A using peptide II H as the reference.

[5] = Early HCV Infection panel, n = 9
[6] = Late HCV Infection panel, n = 14
[7] = NS-5 peptides (Table 12), Panel I, pep11 as a standard
[8] = capsid peptides, Panel I, relative to VIIIE, coated at 5, 1 and 0.2 μg/mL
[9] = Arima clone 1 peptides, relative to peptide VIIIE

ANGSGPDQRPYCWHYPPKPCGIVPAKSVCGPVYC [231B]
% IP (antibodies to HCV [1]): 96.4%
% Relative Immunoreactivity in comparison to Pep2 (232A) (antibodies to HCV [2]; [5]): 30.9%
% Relative Immunoreactivity in comparison to Pep2 (232A) (antibodies to HCV [2]; [6]): 46.7%

CGSVFLIGQLFTFSPRRHWTTQGCNCSIYPGHITGHRMAWDMMMNWSPTA [254C]
% Relative Immunoreactivity (antibodies to HCV [3]): 16.7%

CNESLNTGWLAGLIYQHKFNSSGCPERLASC [246B]
% Relative Immunoreactivity (antibodies to HCV [3]): 19.8%

CPERLASCRPLTDFDQGWGPISYANGSGPDQRPYCWHYPPKPCGIVPAKSVC [241C]
% IP (antibodies to HCV [1]): 93.6%
% Relative Immunoreactivity in comparison to Pep2 (232A) (antibodies to HCV [2]; [5]): 44.7%
% Relative Immunoreactivity in comparison to Pep2 (232A) (antibodies to HCV [2]; [6]): 84.7%

CQVPSPEFFTELDGVRLHRFAPPCKPLLREEVSFRVGLHEYPVGSQLPCEPEPD [311C]
% IP (antibodies to HCV [4]; [7]): 16.8%

CVREGNVSRCWVAMTPTVATRDGKLPATQLRRHIDLLVGSATLC [244B]
% Relative Immunoreactivity (antibodies to HCV [3]): 5.8%

CWVAMTPIVATRDGKLPATQLRRHIDLLVGSATLC [244A]
% Relative Immunoreactivity (antibodies to HCV [3]): 3.8%

FTDNSSPPVVPQSFQVAHLHAPTGSGKSTKPAAYA [278B]
% IP (antibodies to HCV [4]; NS-3 peptides (Table 4A), Panel I, relative to pep3 (279A)): 1.4%

GPRLGVRATRKTSERSQPRGRR [VIIIA]
% Relative Immunoreactivity (antibodies to HCV [4]; [8]): 32.7%

IPKVRRPEGRTWAQPGYPWPLYGNEGCGWAGWLLSPRGSRPSWGPTDPRRRSRNLG [IXD]
% Relative Immunoreactivity (antibodies to HCV [4]; [8]): 58.9%

KEKEKTATNNPGKNKKPRVGRIKNWNREGRKDAYQIRKRR [40 mer, reference compound]
% Relative Immunoreactivity (antibodies to HCV [4]; [9]): 21.1%

KKQRRYKEKEKTATNNPGKNKKPRVGRIKNWNREGRKDAYQIRKRR (NDTHKKQRRYKEKEKTATNNPGKNKKPRVGRIKNWNREGRKDAYQIRKRR) [50 mer, reference compound]
% Relative Immunoreactivity (antibodies to HCV [4]; [9]): 17.8%

KQNIQLINTNGSWHINSTALNCNESLNTGWLAGLIYQHKFNSSGCPERLASC [246E]
% Relative Immunoreactivity (antibodies to HCV [3]): 10.5%

LRRLHQWISSECTTPCSGSWLRDIWDWICEVLSDFKTWLKAKLMPQL [314C]
% IP (antibodies to HCV [4]; [7]): 14.2%

LWRVSAEEYVEIRQVGDFHYVIGMTTDNLKCPCQVPSP [312C]
% IP (antibodies to HCV [4]; [7]): 40.4%
